These results are taken from patent US20240246950A1, “Anilino-Pyrazole Derivatives, Compositions and Methods Thereof” (Ensem Therapeutics, priority 2022, published 2024).

One assay deals with CDK1/cyclinB (Homo sapiens, UniProt P06493). The assay can be described thus: In vitro kinase Caliper assay CDK1/cyclinB. In kind it is biochemical. Conditions: enzyme 1 nM, 28° C. 30 min. As to the method: (§1) In Vitro Kinase Caliper Assays: CDK2/CycA2, CDK2/CycE1, CDK1/cyclinB and GSK3β
(§2) 1× Kinase buffer (50 mM HEPES pH 7.5, 10 mM MgCl2, 2 mM DTT and 0.01% Brij-35) The test compounds were prepared as 10 mM stock solution in 100% DMSO. The stock solution was then serially diluted 3-fold in 100% DMSO to 10 concentrations. 200 nL of each diluted compound solution was transferred to 384-well plate in duplicate. To each well, 10 μL of enzyme solution containing either CDK2/CycA2, CDK2/CycE1, CDK1/cyclinB, or GSK3β (final concentrations 10 nM, 3 nM, 1 nM, 1 nM respectively) in 1× Kinase buffer and the mix incubated at room temperature for 10 min. To initiate each reaction, 10 μL of peptide solution containing FAM-labelled peptide with final concentration at 3000 nM (FAM-P18 (5-FAM-QSPKKG-CONH2) for CDK2/CycA2, CDK2/CycE1, CDK1/cyclinB proteins, FAM-P15 (5-FAM-KRREILSRRPpSYR—COOH) for GSK30 protein) and ATP (final concentrations 30 μM, 77 μM or 20 μM, respectively) in 1× Kinase buffer was added to each well. All reactions were incubated at 28° C. for 30 min and then terminated by the addition of 30 μL stop buffer (100 mM HEPES pH 7.5, 50 mM EDTA, 0.2% Coating Reagent #3 and 0.015% Brij-35). All samples were then subjected to analysis using Caliper EZ Reader to read conversion values. IC50 values were then calculated by plotting dose-response curves and then using the XLfit application in Excel software.

In the next assay the target is CDK2/CycA2 (Homo sapiens, UniProt P24941). The assay can be described thus: In vitro kinase Caliper assay CDK2/CycA2. It counts as biochemical. The settings on record: enzyme 10 nM, 28° C. 30 min, read-out: CDK2 cyclinA2 activity assay: IC50. How it is done: as §1, §2
The target of another assay is CDK2/CycE1 (Homo sapiens, UniProt P24941). In words: In vitro kinase Caliper assay CDK2/CycE1. It counts as biochemical. The settings on record: enzyme 3 nM, 28° C. 30 min, read-out: CDK2 cyclinE1 activity assay: IC50. How it is done:
as §1, §2

A further assay addresses GSK3β (Homo sapiens, UniProt P49841). The assay can be described thus: In vitro kinase Caliper assay GSK3β. In kind it is biochemical. Conditions: enzyme 1 nM, 28° C. 30 min. How it is done: as §1, §2
In the next assay the test system is OVCAR3. In words: Cell proliferation (CyQUANT) OVCAR3. It counts as cell-based. The settings on record: Homo sapiens, OVCAR-3, 168 h, OVCAR3, 7 days, read-out: Anti-proliferation assay: IC50 (nM) [Cell Line: OVCAR3]. A digest of the protocol: (§3)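 Cells were seeded at 2500, 1000 or 3000 cells/well, cultured overnight, then exposed to 3-fold compound dilutions for 7 days (final DMSO at most 0.01%). CyQUANT fluorescence was read at Ex/Em 480/520 nm; % inhibition computed relative to same-plate DMSO wells.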

For another assay, the system named is TOV21G. In words: Cell proliferation (CyQUANT) TOV21G. In kind it is cell-based. Conditions: Homo sapiens, 168 h, 7 days, read-out: Anti-proliferation assay: IC50 (nM) [Cell Line: TOV21G]. Summed up:
as §3

Sequence of GSK3β (P49841 whole entry, species assumed): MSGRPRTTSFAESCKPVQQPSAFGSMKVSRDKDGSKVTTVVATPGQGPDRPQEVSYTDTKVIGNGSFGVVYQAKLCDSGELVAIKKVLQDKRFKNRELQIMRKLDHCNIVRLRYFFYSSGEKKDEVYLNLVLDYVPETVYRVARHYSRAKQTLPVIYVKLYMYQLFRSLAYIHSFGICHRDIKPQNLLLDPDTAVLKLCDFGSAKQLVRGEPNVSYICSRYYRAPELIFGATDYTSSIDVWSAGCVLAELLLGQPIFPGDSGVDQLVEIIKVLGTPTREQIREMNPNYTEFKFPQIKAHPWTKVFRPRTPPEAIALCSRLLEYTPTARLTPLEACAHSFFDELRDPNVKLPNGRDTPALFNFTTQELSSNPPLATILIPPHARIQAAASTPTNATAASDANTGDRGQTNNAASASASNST
Sequence of CDK1/cyclinB (P06493 whole entry): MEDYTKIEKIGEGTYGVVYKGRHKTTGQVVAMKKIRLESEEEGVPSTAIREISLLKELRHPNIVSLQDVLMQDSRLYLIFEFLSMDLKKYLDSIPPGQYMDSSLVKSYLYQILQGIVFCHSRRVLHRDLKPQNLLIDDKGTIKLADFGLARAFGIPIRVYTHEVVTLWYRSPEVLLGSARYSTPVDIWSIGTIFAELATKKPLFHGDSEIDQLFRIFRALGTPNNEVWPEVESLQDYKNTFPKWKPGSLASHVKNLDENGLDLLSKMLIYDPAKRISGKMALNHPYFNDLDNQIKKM
Sequence of CDK1/cyclinB (P14635 whole entry partner): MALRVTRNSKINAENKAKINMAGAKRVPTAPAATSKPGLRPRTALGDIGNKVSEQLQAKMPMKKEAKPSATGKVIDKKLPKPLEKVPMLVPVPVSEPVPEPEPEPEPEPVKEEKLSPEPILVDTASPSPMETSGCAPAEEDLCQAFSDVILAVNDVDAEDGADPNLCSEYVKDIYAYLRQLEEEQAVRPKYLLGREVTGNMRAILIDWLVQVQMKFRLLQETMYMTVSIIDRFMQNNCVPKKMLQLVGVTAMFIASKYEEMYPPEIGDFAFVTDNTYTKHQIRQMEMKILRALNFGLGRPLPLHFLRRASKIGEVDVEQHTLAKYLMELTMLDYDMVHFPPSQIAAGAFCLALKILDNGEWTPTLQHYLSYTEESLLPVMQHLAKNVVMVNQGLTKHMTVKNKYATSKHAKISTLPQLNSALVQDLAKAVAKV

Consider `CC(C)NC(=O)O[C@@H]1CC[C@H](c2cc(Nc3ccc4c(c3)CNS4(=O)=O)n[nH]2)C1` [Example 3, (1R,3S)-3-(3-((1,1-dioxido-2,3-dihydrobenzo[d]isothiazol-5-yl)amino)-1H-pyrazol-5-yl)cyclopentyl isopropylcarbamate], for which the IC50 is less than 50 nM on CDK1/cyclinB; less than 50 nM on CDK2/CycA2; less than 50 nM on CDK2/CycE1; 500 to 1000 nM against GSK3β; not above 500 nM with OVCAR3; not below 1000 nM in the assay on TOV21G.
On to `CC(C)NC(=O)O[C@@H]1CC[C@H](c2cc(Nc3ccc4c(c3)CCNS4(=O)=O)n[nH]2)C1` [Example 2, (1R,3S)-3-(3-((1,1-dioxido-3,4-dihydro-2H-benzo[e][1,2]thiazin-6-yl)amino)-1H-pyrazol-5-yl)cyclopentyl isopropylcarbamate], for which the IC50 against CDK1/cyclinB is less than 50 nM; at CDK2/CycA2 it was less than 50 nM; at CDK2/CycE1 it was less than 50 nM; against GSK3β, 500 to 1000 nM; in the assay with OVCAR3 it was not above 500 nM; with TOV21G it was not below 1000 nM.
Turning to `CC(C)NC(=O)O[C@@H]1CC[C@H](c2cc(Nc3ccc4c(=O)[nH]n(C)c4c3)n[nH]2)C1` [Example 1, (1R,3S)-3-(3-((1-methyl-3-oxo-2,3-dihydro-1H-indazol-6-yl)amino)-1H-pyrazol-5-yl)cyclopentyl isopropylcarbamate], the IC50 on CDK1/cyclinB was 50 to 500 nM; at CDK2/CycA2, less than 50 nM; at CDK2/CycE1, less than 50 nM; at GSK3β, 50 to 500 nM; with OVCAR3 it was not below 1000 nM; with TOV21G, not below 1000 nM.
